Calls of active or inactive are those of the source. Rule as the data show it, for most assays here: actives have a measured EC50 and inactives only a lower limit.
Columns and labels:
[1] = target: T1, RNA-binding protein pos-1 (Caenorhabditis elegans, UniProt G5EF15); assay: disruptors of C. elegans POS-1 RNA interaction – biochemical, fluorescence polarization, dose response (AID 1964);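 also: purified POS-1 fused to maltose binding protein made in E. coli; potency of compounds blocking POS-1 binding to fluorescent RNA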
T1 sequence (G5EF15 whole entry): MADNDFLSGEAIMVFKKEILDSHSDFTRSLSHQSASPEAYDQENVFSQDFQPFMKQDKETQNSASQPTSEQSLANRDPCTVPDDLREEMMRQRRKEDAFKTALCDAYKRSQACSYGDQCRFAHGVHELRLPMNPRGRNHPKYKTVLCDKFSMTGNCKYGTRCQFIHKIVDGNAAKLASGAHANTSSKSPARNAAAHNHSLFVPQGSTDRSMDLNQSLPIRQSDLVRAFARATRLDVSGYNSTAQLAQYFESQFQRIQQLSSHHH

[2] = DRD fibroblast viability loss – cell-based, non-viral oncogenic, luminescence, dose response (AID 1934); type: functional; details: Homo sapiens
[3] = test system: BJ; assay: BJ-TERT fibroblast viability loss – cell-based, RAS-independent, luminescence, dose response (AID 1933); type: functional; details: Homo sapiens
[4] = test system: BJ; assay: growth inhibition of engineered Ras-driven BJ cells – cell-based, alamar blue fluorescence, cherrypicked samples, dose response (AID 2631); type: functional; details: Homo sapiens;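 also: confirmatory dose-response assay in RAS-dependent BJ fibroblasts engineered with TERT, LT and ST, with cytotoxicity read by fluorescence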
[5] = test system: BJ; assay: cells; type: functional, cell-based; details: Homo sapiens
[6] = target: T2, Zinc finger protein mex-5 (Caenorhabditis elegans, UniProt Q9XUB2); assay: potency of MEX-5 RNA-binding blockers – biochemical, C. elegans, fluorescence polarization, dose response (AID 1960)
T2 sequence (Q9XUB2 whole entry): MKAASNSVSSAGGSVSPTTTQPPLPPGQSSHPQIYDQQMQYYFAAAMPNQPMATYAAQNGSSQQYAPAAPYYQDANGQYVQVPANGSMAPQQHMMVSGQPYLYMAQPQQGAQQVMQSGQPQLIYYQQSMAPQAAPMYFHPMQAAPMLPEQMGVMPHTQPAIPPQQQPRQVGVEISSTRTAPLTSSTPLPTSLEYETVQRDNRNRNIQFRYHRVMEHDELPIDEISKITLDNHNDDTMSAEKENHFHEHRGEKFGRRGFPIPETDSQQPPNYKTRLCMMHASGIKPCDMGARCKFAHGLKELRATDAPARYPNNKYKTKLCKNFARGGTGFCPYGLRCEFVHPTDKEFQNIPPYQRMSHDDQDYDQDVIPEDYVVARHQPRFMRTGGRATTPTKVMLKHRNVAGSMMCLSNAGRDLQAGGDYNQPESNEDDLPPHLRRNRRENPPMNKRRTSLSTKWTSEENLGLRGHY

[7] = test system: BJ; assay: BJ-TERT-LT-ST fibroblast viability loss – cell-based, RAS-independent, luminescence, dose response (AID 1935); type: functional; details: Homo sapiens;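 also: BJ fibroblasts immortalized with TERT plus LT and ST oncogenes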
[8] = target: T3, Endoribonuclease toxin MazF (Escherichia coli K-12, UniProt P0AE70); assay: activation of MazEF endoribonuclease cleavage – biochemical, fluorescence, single-stranded RNA substrate, uHTS hits, dose response (AID 588481); type: functional
T3 sequence (P0AE70 whole entry): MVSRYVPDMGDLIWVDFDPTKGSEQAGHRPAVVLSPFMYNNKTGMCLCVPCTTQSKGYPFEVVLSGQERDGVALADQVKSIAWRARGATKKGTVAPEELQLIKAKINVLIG

[9] = target: T3, Endoribonuclease toxin MazF; assay: substrate-only fluorescence increase artefacts – biochemical, single-stranded RNase substrate, counter-screen for MazEF activator project, dose response (AID 588502); type: functional
[10] = target: Photoreceptor-specific nuclear receptor (Homo sapiens, UniProt Q9Y5X4); type: functional, cell-based;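 also: CHO-S cells with Gal4-NCOR and VP16-NR2E3 two-hybrid luciferase reporter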
[11] = A Cell Based Secondary Assay To Explore Cytotoxicity of Compounds that Sensitize Mycobacterium Tuberculosis to Beta-Lactam Antibiotics.; type: functional
[12] = target: Melanocortin receptor 4 (Homo sapiens, UniProt P32245); type: functional, cell-based;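 also: Cell-based assay with luminescence read-out, confirmatory dose-response testing for agonist activity of biased ligands at MC4R; human U2OS cells with tagged receptor and beta-arrestin; potency of agonists that increase receptor coupling to beta-arrestin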
[13] = cells; type: functional, cell-based
[14] = test system: INS1; assay: INS-1E survival protection against cytokine death – cell-based, luminescence, retest, dose response (AID 449756); type: functional; details: Rattus norvegicus;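 also: cell death triggered by IL-1 beta plus TNF-alpha plus IFN-gamma mixture; protective hits raise ATP signal compared with cytokine alone wells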
[15] = luciferase reporter signal suppression in cells – H4 neuroglioma cells, luminescence, dose response (AID 1990); type: functional, cell-based
[16] = cells; type: functional, cell-based; remark: listed apart in the source
[17] = Luminescence Cell-Based Dose Response HTS to Identify Inhibitors of 5'UTR Stem-Loop Driven Prion Protein mRNA Translation in H4 Neuroglioblastoma Cells. [Related pubchem assays: 1827 (Project Summary), 1813 (Primary HTS)]; type: functional
[18] = alpha-synuclein stem-loop luciferase translation blockers – H4 neuroglioma cells, luminescence, confirmation (AID 1988); type: functional, cell-based
[19] = target: Protein Wnt-3a (Mus musculus, UniProt P27467); assay: antagonism of Wnt3a pathway luciferase reporter – Wnt-LIGHT cells, luminescence, selectivity assay for Gli-SUFU antagonist project, dose response (AID 651570); type: functional; details: read-out: IC50_Mean;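 also: Wnt-LIGHT reporter cells stimulated with conditioned medium from Wnt3a-producing cells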
Chain of Protein Wnt-3a (P27467 whole entry): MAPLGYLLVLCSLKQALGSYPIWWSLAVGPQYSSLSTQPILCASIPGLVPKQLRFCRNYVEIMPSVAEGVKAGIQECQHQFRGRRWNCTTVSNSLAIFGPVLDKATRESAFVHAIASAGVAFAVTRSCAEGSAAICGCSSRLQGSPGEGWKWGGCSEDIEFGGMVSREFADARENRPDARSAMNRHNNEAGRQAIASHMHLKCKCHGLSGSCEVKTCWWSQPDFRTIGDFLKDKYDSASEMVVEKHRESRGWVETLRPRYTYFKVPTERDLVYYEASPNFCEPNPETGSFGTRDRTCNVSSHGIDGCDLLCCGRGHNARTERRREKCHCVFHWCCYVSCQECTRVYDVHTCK

Chain of Photoreceptor-specific nuclear receptor (Q9Y5X4 whole entry, the tested form may be a part): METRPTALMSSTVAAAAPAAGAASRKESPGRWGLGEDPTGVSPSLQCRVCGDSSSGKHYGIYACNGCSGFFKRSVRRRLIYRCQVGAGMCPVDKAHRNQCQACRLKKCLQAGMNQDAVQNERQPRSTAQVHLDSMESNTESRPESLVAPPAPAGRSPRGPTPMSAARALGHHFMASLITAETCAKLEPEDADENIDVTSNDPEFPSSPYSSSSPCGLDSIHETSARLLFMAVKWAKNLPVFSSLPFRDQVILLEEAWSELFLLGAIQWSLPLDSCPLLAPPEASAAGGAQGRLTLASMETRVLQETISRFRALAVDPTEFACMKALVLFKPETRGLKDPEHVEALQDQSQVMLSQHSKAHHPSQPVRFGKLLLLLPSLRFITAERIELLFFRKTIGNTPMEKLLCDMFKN
Chain of Melanocortin receptor 4 (P32245 whole entry): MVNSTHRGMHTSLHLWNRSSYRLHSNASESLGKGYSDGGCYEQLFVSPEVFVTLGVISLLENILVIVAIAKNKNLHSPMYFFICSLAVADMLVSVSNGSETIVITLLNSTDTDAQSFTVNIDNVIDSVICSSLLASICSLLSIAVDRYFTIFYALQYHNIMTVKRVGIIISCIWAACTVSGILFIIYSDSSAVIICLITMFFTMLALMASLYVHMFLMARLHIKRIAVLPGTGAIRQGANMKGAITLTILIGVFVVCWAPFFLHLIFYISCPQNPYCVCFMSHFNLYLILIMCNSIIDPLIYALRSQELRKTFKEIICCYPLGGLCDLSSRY

COc1ccc(N2C(=O)/C(=C/c3ccc(C)o3)C(=O)NC2=S)cc1
EC50 [1]: > 300 µM (not active)
EC50 [2]: 15.9 µM (active)
EC50 [3]: > 150 µM (not active)
EC50 [4]: > 133 µM (inactive)
EC50 [5]: 17 µM (active)
EC50 [6]: > 300 µM (not active)
EC50 [7]: > 75 µM (inconclusive)

COc1ccc(NC(=O)CN(C)S(=O)(=O)c2ccccc2)c([N+](=O)[O-])c1
EC50 [8]: > 99 µM (inactive)
EC50 [9]: > 99 µM (inactive)

COC(CNC(=O)CSCc1nc(-c2ccc(SC)cc2)oc1C)OC
IC50 [10]: 2.23 µM (active)

C=C(C(=O)c1ccccc1)C(NC(C)(C)C)c1ccccc1 (stereo not given)
IC50 [10]: 2.01 µM (active)

Clc1ccc(/C=N/NC2=Nc3cccc4cccc2c34)cc1
CC50 [11]: 21.4 µM (active)
EC50 [12]: > 89.1 µM (inactive)

C/C(=N\Nc1nc2ccccc2[nH]1)c1ccccn1
EC50 [13]: 13.8 µM (active)
EC50 [2]: 2.24 µM (active)
AC50 [14]: < 0.195 µM (active)
EC50 [15]: 0.306 µM (active)
EC50 [16]: 6.03 µM (active)
EC50 [17]: 0.154 µM (active)
EC50 [3]: 0.672 µM (active)
EC50 [4]: < 0.104 µM (active)
EC50 [18]: 0.107 µM (active)
EC50 [5]: 4.7 µM (active)
EC50 [7]: 1.38 µM (inconclusive)

Brc1ccc(-c2cn3c([n+]2-c2ccccc2)SCC3)cc1
IC50 [19]: 17.2 µM (active)
